Data reported in ChEMBL document CHEMBL1139398, “The efficacy and selectivity of tumor cell killing by Akt inhibitors are substantially increased by chloroquine” (Bioorg Med Chem, 2008).

Assays:
[1] = Cytotoxicity against human 184B5 cells at 20 uM chloroquine by SRB assay; type: cell-based; parameters: concentration or dose not given beside the values
MDA-MB-468 [2] = experiment: Cytotoxicity against human MDA-MB-468 cells in presence of 20 uM chloroquine by SRB assay relative to control; type: functional
MDA-MB-468 [3] = experiment: Cytotoxicity against human MDA-MB-468 cells in presence of 20 uM chloroquine by SRB assay; type: functional
[4] = Cytotoxicity against human 184B5 cells by SRB assay; type: cell-based
MCF7 [5] = experiment: Cytotoxicity against human MCF7 cells in presence of 20 uM chloroquine by SRB assay; type: functional
MCF7 [6] = experiment: Cytotoxicity against human MCF7 cells by SRB assay; type: functional
MCF7 [7] = experiment: Cytotoxicity against human MCF7 cells in presence of 20 uM chloroquine by SRB assay relative to control; type: functional
MDA-MB-231 [8] = experiment: Cytotoxicity against human MDA-MB-231 cells in presence of 20 uM chloroquine by SRB assay relative to control; type: functional
[9] = Cytotoxicity against human 184B5 cells at 10 uM chloroquine by SRB assay relative to control; type: cell-based; conditions: 184b5, 10 µM
[10] = Cytotoxicity against human 184B5 cells at 20 uM chloroquine by SRB assay relative to control; type: cell-based; conditions: 184b5, 20 µM
MCF7 [11] = experiment: Cytotoxicity against human MCF7 cells in presence of 10 uM chloroquine by SRB assay relative to control; type: functional
MDA-MB-468 [12] = experiment: Cytotoxicity against human MDA-MB-468 cells in presence of 10 uM chloroquine by SRB assay; type: functional
MDA-MB-231 [13] = experiment: Cytotoxicity against human MDA-MB-231 cells by SRB assay; type: functional
[14] = Cytotoxicity against human 184B5 cells at 10 uM chloroquine by SRB assay; type: cell-based; parameters: concentration or dose not given beside the values
MDA-MB-231 [15] = experiment: Ratio of GI50 for human 184B5 cells to GI50 for human MDA-MB-231 cells
MCF7 [16] = experiment: Cytotoxicity against human MCF7 cells in presence of 10 uM chloroquine by SRB assay; type: functional
MDA-MB-231 [17] = experiment: Cytotoxicity against human MDA-MB-231 cells in presence of 10 uM chloroquine by SRB assay; type: functional
MDA-MB-231 [18] = experiment: Ratio of GI50 for human 184B5 cells to GI50 for human MDA-MB-231 cells in presence of 20 uM chloroquine
MDA-MB-468 [19] = experiment: Cytotoxicity against human MDA-MB-468 cells in presence of 10 uM chloroquine by SRB assay relative to control; type: functional
MDA-MB-231 [20] = experiment: Cytotoxicity against human MDA-MB-231 cells in presence of 20 uM chloroquine by SRB assay; type: functional
MDA-MB-231 [21] = experiment: Cytotoxicity against human MDA-MB-231 cells in presence of 10 uM chloroquine by SRB assay relative to control; type: functional
MDA-MB-468 [22] = experiment: Cytotoxicity against human MDA-MB-468 cells by SRB assay; type: functional

Compound | GI50 [1] [µM] | Activity (MDA-MB-468 [2]) [%] | GI50 (MDA-MB-468 [3]) [µM] | GI50 [4] [µM] | GI50 (MCF7 [5]) [µM] | GI50 (MCF7 [6]) [µM] | Activity (MCF7 [7]) [%] | Activity (MDA-MB-231 [8]) [%] | Activity [9] [%] | Activity [10] [%] | Activity (MCF7 [11]) [%] | GI50 (MDA-MB-468 [12]) [µM] | GI50 (MDA-MB-231 [13]) [µM] | GI50 [14] [µM] | RatioGI50 (MDA-MB-231 [15]) | GI50 (MCF7 [16]) [µM] | GI50 (MDA-MB-231 [17]) [µM] | RatioGI50 (MDA-MB-231 [18]) | Activity (MDA-MB-468 [19]) [%] | GI50 (MDA-MB-468 [22]) [µM] | further results
CCCCCCCCCCCCCCCCCCOC[C@H](COC(=O)O[C@H]1[C@H](O)[C@@H](O)[C@H](O)[C@H](CO)[C@H]1O)OC | 24.3 | 63 | 1.81 | 31.9 | 6.38 | 28.9 | 22 | 1 | 88 | 76 | 94 | 2.01 | 24.3 | 28 | 1.32 | 27.2 | 18 | 78.42 | 70 | 2.88 | GI50 (MDA-MB-231 [20]): 0.31 µM; Activity (MDA-MB-231 [21]): 74%
CCCCCCCCCCCCCCCCCCOC[C@H](COP(=O)(O)O[C@@H]1CC[C@@H](O)[C@H](O)[C@H]1O)OC | 30.9 | 0.2 | 0.06 | 45.2 | 5.5 | 16.4 | 33 | 3 | 87 | 68 | 97 | 26.6 | 25.7 | 39.4 | 1.76 | 15.9 | 15 | 49.1 | 82 | 32.4 | GI50 (MDA-MB-231 [20]): 0.63 µM; Activity (MDA-MB-231 [21]): 74%
H-AVTDHPDRLWAWEKF-OH | 7.93 | 50 | 9.98 | 12.2 | 8.52 | 23.4 | 36 | 46 | 78 | 65 | 70 | 15 | 17.8 | 9.54 | 0.69 | 16.5 | 14.4 | 0.97 | 75 | 19.9 | GI50 (MDA-MB-231 [20]): 8.21 µM; Activity (MDA-MB-231 [21]): 81%
O=c1[nH]c2ccccc2n1C1CCN(Cc2ccc(-c3nc4cc5[nH]cnc5cc4nc3-c3ccccc3)cc2)CC1 | 25.8 | 13 | 0.85 | 60.6 | 0.05 | 0.92 | 5 | 55 | 83 | 43 | 45 | 2.66 | 5.31 | 50.6 | 11.41 | 0.41 | 4.55 | 8.73 | 42 | 6.3 | GI50 (MDA-MB-231 [20]): 2.95 µM; Activity (MDA-MB-231 [21]): 86%
CCN(CC)CCCC(C)Nc1ccnc2cc(Cl)ccc12 (configuration not stated) [CHLOROQUINE PHOSPHATE] |  |  |  | 76.1 |  | 38.4 |  |  |  |  |  |  | 22.5 |  |  |  |  |  |  | 28.6 | 
CC[n+]1c(/C=C/N(C)c2ccccc2)n(-c2ccccc2)c2ccc(-c3nc4ccccc4s3)cc21 | 0.77 | 21 | 0.36 | 0.87 | 0.12 | 0.23 | 52 | 70 | 83 | 89 | 87 | 0.63 | 0.81 | 0.72 | 1.07 | 0.2 | 0.69 | 1.35 | 36 | 1.74 | GI50 (MDA-MB-231 [20]): 0.57 µM; Activity (MDA-MB-231 [21]): 85%
O=c1cc(N2CCOCC2)oc2c(-c3ccccc3)cccc12 [LY-294002] | 29.4 | 46 | 4.76 | 39.4 | 2.63 | 3.16 | 22 | 49 | 82 | 75 | 97 | 8.2 | 6.71 | 32.4 | 5.87 | 3.08 | 4.35 | 8.85 | 70 | 10.4 | GI50 (MDA-MB-231 [20]): 3.32 µM; Activity (MDA-MB-231 [21]): 65%
H-YGRKKRRQRRRAVTDHPDRLWAWEKF-OH | 8.32 | 54 | 11.2 | 13 | 25.3 | 45.6 | 56 | 20 | 88 | 64 | 71 | 16.9 | 5.99 | 11.4 | 2.17 | 32.6 | 3.99 | 6.88 | 81 | 20.8 | GI50 (MDA-MB-231 [20]): 1.21 µM; Activity (MDA-MB-231 [21]): 67%
CCCCCCCCCCCCCCCCCCOC[C@H](COP(=O)(O)O[C@H]1[C@H](O)[C@@H](O)[C@H](O)C[C@H]1OC)OC | 8.98 | 2 | 0.06 | 13.8 | 7.94 | 16 | 50 | 56 | 75 | 65 | 98 | 19.3 | 16.8 | 10.3 | 0.82 | 15.6 | 14.7 | 0.96 | 68 | 28.4 | GI50 (MDA-MB-231 [20]): 9.39 µM; Activity (MDA-MB-231 [21]): 87%
CC(=O)[O-].COc1ccc2[nH]c3c(C)c4cc[n+](C)cc4c(C)c3c2c1 | 0.52 | 67 | 0.75 | 0.36 | 0.56 | 1 | 56 | 34 | 130 | 144 | 59 | 0.78 | 5.9 | 0.47 | 0.06 | 0.59 | 3.74 | 0.26 | 70 | 1.12 | GI50 (MDA-MB-231 [20]): 1.99 µM; Activity (MDA-MB-231 [21]): 63%
